From patent US20220267258A1, “ROBENIDINE ANALOGS AS POTENT ANTIMALARIALS AGAINST DRUG-RESISTANT PLASMODIUM FALCIPARUM” (OREGON HEALTH & SCIENCE UNIVERSITY, priority 2021, published 2022)
Where a name gives a salt, the structure may show the parent alone. Read-outs that look alike come from different tables or passages of the source.

Columns and labels:
[1] = test system: P. falciparum Dd2; experiment: SYBR Green growth inhibition assay, P. falciparum Dd2; type: cell-based, Plasmodium falciparum; details: read-out: IC50 Dd2
Protocol: (§1) In addition to the drug-sensitive P. falciparum D6 strain, the aminoguanidines were assessed against three drug-resistant strains (Tables 1-3).
(§2) The following parasite strains were used in this study and obtained through BEI Resources, NIAID, NIH. […] The culture medium used was RPMI-1640, supplemented with 25 mM HEPES buffer, 25 mg/L gentamicin sulfate, 45 mg/L hypoxanthine, 10 mM glucose, 2 mM glutamine, and 0.5% Albumax II (complete medium).^43 Cultures were maintained in a standard low oxygen atmosphere (5% O2, 5% CO2, 90% N2) in an environmental chamber and incubated at 37° C. Cultures were sub-passaged every 3-4 days into a fresh culture flask containing complete media and erythrocytes.
(§3) The aminoguanidine series was assessed for in vitro antiplasmodial activity using the fluorescence-based SYBR Green assay described previously by Smilkstein and co-workers.^38 Compounds were evaluated in quadruplicate in flat-bottomed Costar clear 96-well plates (Model #3585). A two-fold serial dilution of each compound was performed across the columns of the test plates starting with 20 μM and ending with a final untreated column to serve as control wells. Asynchronous parasite infected erythrocytes in growth media were added to each well for a total volume of 100 μL, final hematocrit of 2%, and initial parasitemia of 0.2%. The commercial malaria drugs atovaquone and chloroquine were used as control drugs. Test plates were incubated for 72 hr at 37° C. in an environmental chamber with a controlled low oxygen atmosphere (5% O2, 5% CO2, 90% N2). After the incubation period, 100 μL SYBR Green I dye-detergent solution was added to each well, and the plates were incubated at ambient temperature and atmosphere in the dark for at least one hour. Fluorescence was read at 497 nm excitation and 520 nm emission bands using a Spectramax iD3 plate reader. Fluorescence readings were normalized with respect to the untreated control wells representing normal parasite growth and plotted against the logarithm of drug concentration.

[2] = test system: P. falciparum A6; experiment: SYBR Green growth inhibition assay, P. falciparum A6; type: cell-based, Plasmodium falciparum; details: read-out: IC50 A6
Protocol: as §1, §2, §3

[3] = test system: P. falciparum Tm90-C2B; experiment: SYBR Green growth inhibition assay, P. falciparum Tm90-C2B; type: cell-based, Plasmodium falciparum; details: read-out: IC50 Tm90-C2B
Protocol: as §1, §2, §3

[4] = test system: P. falciparum strain D6; experiment: SYBR Green growth inhibition assay, P. falciparum D6; type: cell-based, Plasmodium falciparum; details: read-out: IC50 D6
Protocol: The in vitro activity of each compound in the aminoguanidine library was assessed against asynchronous cultures of Plasmodium falciparum parasites replicating within human erythrocytes (Tables 1-3). As the chemical development of robenidine was not discussed in its original publication in 1970^4 and limited structural information is available regarding its mechanism of action,^10 profiling was guided primarily by in vitro potency against the P. falciparum D6 strain cultured in human erythrocytes as described above.
as §2
as §3, with “The commercial malaria drugs atovaquone and chloroquine were used as control drugs.” left out

[5] = test system: human hepatoma derived HepG2 cells; experiment: HepG2 cytotoxicity assay (resazurin); type: cell-based; details: HepG2, 24 hr drug, 24 hr recovery
Protocol: (§4) In this assay, HepG2 cells were incubated with test compounds for 24 hours, followed by a 24-hour recovery period and subsequent staining to evaluate for cytotoxic effects with resazurin. The ratio of the resulting HepG2 IC50 value to the P. falciparum D6 IC50 value can be considered an ‘in vitro therapeutic index,’ or IVTI.
(§5) Compounds were prepared as 10 mM stock solutions in DMSO. […] HepG2 cells were added to each well of flat bottom 96-well tissue culture plates at an initial density of 2×10^4 cells per well, and an initial volume of 160 μL complete medium per well. After an overnight incubation at 37° C. to adhere the cells to the culture plates, 40 μL drug solutions in complete medium were applied to each well at a final concentration range of 0 to 200 μM across each plate. Drugs were tested in triplicate or quadruplicate. The cells were incubated for 24 hours at 37° C. and 5% CO2 with the drug solutions, which were then aspirated and replaced with 200 μL per well of complete medium for an additional 24 hour incubation under the same conditions. To each well was added 20 μL of resazurin (Alamar Blue) in PBS buffer to a final concentration of 10 μM, and the plates were incubated for 3 hours. Fluorescence was measured at 560 nm excitation and 590 nm emission bands using a Spectramax iD3 plate reader. Fluorescence readings were normalized with respect to the untreated control wells and plotted against the logarithm of drug concentration.

[6] = HepG2 cytotoxicity assay (resazurin); type: cell-based, human; details: human, HepG2 cells; HepG2, 24 hr drug, 24 hr recovery
Protocol: as §4, §5

[7] = Plasmodium falciparum, DD2, 72 h
[8] = Plasmodium falciparum, TM90, 72 h
[9] = Plasmodium falciparum, D6, Erythrocyte, 72 h
[10] = multi-drug resistant strain, 72 hr
[11] = mutant line resistant to respiratory antagonists, 72 hr
[12] = multi-drug resistant clinical isolate, also atovaquone resistant, 72 hr
[13] = pan-sensitive strain, 72 hr, asynchronous cultures in human erythrocytes

Row | SMILES | IC50 [1, 7] [nM] | IC50 ([2]; Plasmodium falciparum, 72 h) [nM] | IC50 [3, 8] [nM] | IC50 ([4]; Plasmodium falciparum, D6, Erythrocyte, pan-sensitive strain, 72 hr, asynchronous cultures in human erythrocytes) [nM] | IC50 [5] [nM] | IC50 [4, 9] [nM] | IC50 at 24 h [6] [nM] | IC50 [1, 10] [nM] | IC50 [2, 11] [nM] | IC50 [3, 12] [nM] | IC50 [4, 13] [nM]
1 | O=C1C(O)=C([C@H]2CC[C@H](c3ccc(Cl)cc3)CC2)C(=O)c2ccccc21 [Atovaquone, reference compound] | < 1 | > 5000 | > 5000 | < 1 | 72000 |  |  |  |  |  | 
2 | N=C(N/N=C/c1ccccc1F)N/N=C/c1ccccc1F [Compound 2] | 4590 | 1890 | > 5000 |  |  | 2870 | > 200000 |  |  |  | 
3 | N=C(N/N=C/c1cccc(F)c1)N/N=C/c1cccc(F)c1 [Compound 3] | > 5000 | 426 | > 5000 |  |  | 767 | 49000 |  |  |  | 
4 | N=C(N/N=C/c1ccc(F)cc1)N/N=C/c1ccc(F)cc1 [Compound 4] | 3790 | 369 | 4900 |  |  | 1020 | 24000 |  |  |  | 
5 | N=C(N/N=C/c1ccccc1Cl)N/N=C/c1ccccc1Cl [Compound 5] | 961 | 348 | 1220 |  |  | 334 | > 200000 |  |  |  | 
6 | N=C(N/N=C/c1cccc(Cl)c1)N/N=C/c1cccc(Cl)c1 [Compound 6] | 567 | 237 | 664 |  |  | 202 | 35000 |  |  |  | 
7 | N=C(N/N=C/c1ccccc1Br)N/N=C/c1ccccc1Br [Compound 7] | 715 | 876 | 974 |  |  | 280 | 94000 |  |  |  | 
8 | N=C(N/N=C/c1cccc(Br)c1)N/N=C/c1cccc(Br)c1 [Compound 8] | 1520 | 502 | 1840 |  |  | 572 | 62000 |  |  |  | 
9 | N=C(N/N=C/c1ccc(Br)cc1)N/N=C/c1ccc(Br)cc1 [Compound 9] | 876 | 269 | 899 |  |  | 277 | 38000 |  |  |  | 
10 | Cc1ccc(/C=N/NC(=N)N/N=C/c2ccc(C)cc2)cc1 [Compound 10] | 2430 | > 5000 | 2530 |  |  | 905 | 43000 |  |  |  | 
11 | COc1ccc(/C=N/NC(=N)N/N=C/c2ccc(OC)cc2)cc1 [Compound 11] | 1600 | 289 | > 5000 |  |  | 263 | > 200000 |  |  |  | 
12 | N=C(N/N=C/c1ccc(C(F)(F)F)cc1)N/N=C/c1ccc(C(F)(F)F)cc1 [Compound 12] | 1540 | 567 | 2740 |  |  | 614 | 40000 |  |  |  | 
13 | N=C(N/N=C/c1ccccc1OC(F)(F)F)N/N=C/c1ccccc1OC(F)(F)F [Compound 14] | 2330 | 391 | > 5000 |  |  | 1080 | 156000 |  |  |  | 
14 | N=C(N/N=C/c1cccc(OC(F)(F)F)c1)N/N=C/c1cccc(OC(F)(F)F)c1 [Compound 15] | 1570 | 689 | 2990 |  |  | 670 | 61000 |  |  |  | 
15 | N=C(N/N=C/c1ccc(OC(F)F)cc1)N/N=C/c1ccc(OC(F)F)cc1 [Compound 18] | 191 | 87 | 193 |  |  | 71 | 19000 |  |  |  | 
16 | N#Cc1ccccc1/C=N/NC(=N)N/N=C/c1ccccc1C#N [Compound 20] | 2100 | 969 | 1990 |  |  | 1020 | 31000 |  |  |  | 
17 | N=C(N/N=C/c1ccccc1)N/N=C/c1ccccc1 [Compound 24] | 4300 | 581 | > 5000 |  |  | 705 | > 200000 |  |  |  | 
18 | N=C(N/N=C/c1ccc(O)cc1)N/N=C/c1ccc(O)cc1 [Compound 25] | 240 | 278 | 286 |  |  | 143 | 39000 |  |  |  | 
19 | N=C(N/N=C/c1ccc(-c2ccccc2)cc1)N/N=C/c1ccc(-c2ccccc2)cc1 [Compound 26] | 87 | 33 | 71 |  |  | 15 | > 200000 |  |  |  | 
20 | N=C(NN=Cc1ccc([N+](=O)[O-])cc1)NN=Cc1ccc([N+](=O)[O-])cc1 [Compound 27] |  |  |  |  | > 200000 |  |  | 198 | 85 | 247 | 96
21 | CN(C)c1ccc(/C=N/NC(=N)N/N=C/c2ccc(N(C)C)cc2)cc1 [Compound 28] | 264 | 122 | 213 |  |  | 118 | 20000 |  |  |  | 
22 | N=C(NN=Cc1ccc(S(N)(=O)=O)cc1)NN=Cc1ccc(S(N)(=O)=O)cc1 [Compound 31] |  |  |  |  | > 200000 |  |  | > 5000 | > 5000 | > 5000 | > 5000
23 | CC#COc1ccc(/C=N/NC(=N)N/N=C/c2ccc(OC#CC)cc2)cc1 [Compound 32] | 199 | 153 | 376 |  |  | 102 | > 200000 |  |  |  | 
24 | N=C(N/N=C/c1ccc(N2CCOCC2)cc1)N/N=C/c1ccc(N2CCOCC2)cc1 [Compound 33] | 329 | 116 | 295 |  |  | 131 | > 200000 |  |  |  | 
25 | N=C(NN=Cc1ccc2c(c1)OC(F)(F)O2)NN=Cc1ccc2c(c1)OC(F)(F)O2 [Compound 36, 2,2′-Bis{[4-(2,2-difluoro-2,3-dioxazolo)]phenyl}methylene]carbonimidic Dihydrazide Hydrochloride] |  |  |  |  | > 200000 |  |  | 800 | 235 | 905 | 250
26 | N=C(N/N=C/c1ccccc1)N/N=C/c1ccccc1F [Compound 38] | 2200 | 833 | > 5000 |  |  | 1030 | > 200000 |  |  |  | 
